Several values for one entry are separate records, joined by “and”; a condition that tells them apart may be missing. Identical values can stand only once. Like-named read-outs stand apart in the source and are kept apart here.
Legend:
[1] = test system: melanoma; conditions: currently used melanoma treatments, cited from earlier work
[2] = test system: Stage IV metastatic melanoma
Method: Example 1, weekly treatment regimen of compound (1) and paclitaxel combined in Stage IV metastatic melanoma patients in comparison with paclitaxel alone, based on time to progression
The dosages administered were 213 mg/m^2 compound (1), 80 mg/m^2 paclitaxel, and the dosage regimen was 3 weekly doses per each 4 week cycle. Patients were treated until progression of the disease. […] The tumor assessments were performed at baseline, Cycle 2, and every other Cycle thereafter.

[3] = Kaplan-Meier estimate, efficacy sample, Stage IV melanoma patients, 3 weekly doses per 4 week cycle
[4] = RECIST, efficacy sample, number of patients (% of group)
[5] = own trial arms as listed in Tables 3 and 4

In the case of CCOP(=O)(OCC)C(C)NC(=O)N(CCCl)N=O (stereo not shown) [Fotemustine], the OR [1] is given as 15.2%, the Survival [1] is given as 7.3 months and the TTP [1] is given as 55 days.
For CC(=O)O[C@H]1C(=O)[C@@]2(C)[C@H]([C@H](OC(=O)c3ccccc3)[C@]3(O)C[C@H](OC(=O)[C@H](O)[C@@H](NC(=O)c4ccccc4)c4ccccc4)C(C)=C1C3(C)C)[C@]1(OC(C)=O)CO[C@@H]1C[C@@H]2O [Paclitaxel], the “Time to Progression, 75th percentile (95% CI)” value [2, 3] was 106.0 (61.0, 218.0) days, the “Time to Progression, Median (95% CI)” value [2, 3] was 56.0 (49.0, 105.0) days and the “Best Overall Response: Complete Response (CR)” value [2, 4] was 0. For the same molecule, the “Best Overall Response: Partial Response (PR)” value [2, 4] was 1 (3.7%), the “Best Overall Response: Progressive Disease (PD)” value [2, 4] was 16 (59.3%) and the “CR + PR (95% CI)” value ([2]; RECIST, efficacy sample, two-sided Fisher's exact test p-value 0.149) was 3.7% (0.1%, 19.0%). The “patients with stable disease” value ([2]; Table 2) was 37%, the CR [2, 5] was 0% and the OR [2, 5] was 3.7%. The PR [2, 5] was 3.7%, the TTP [2, 5] was 57 days and the OR ([1]; listed as Paclitaxel (Taxol)) was 12% and 17.8%.
For CNC(=O)c1cc(Oc2ccc(NC(=O)Nc3ccc(Cl)c(C(F)(F)F)c3)cc2)ccn1 [Sorafenib], the PR [1] is listed as 2.6%.
In the case of CC/C(=C(\c1ccccc1)c1ccc(OCCN(C)C)cc1)c1ccccc1 [Tamoxifen], the CR [1] is listed as 1%, the OR [1] is listed as 4.9% and the PR [1] is listed as 3.9%.
